We go through 1 compound from ChEMBL document CHEMBL5136977, “Discovery of 1-(5-(1H-benzo[d]imidazole-2-yl)-2,4-dimethyl-1H-pyrrol-3-yl)ethan-1-one derivatives as novel and potent bromodomain and extra-terminal (BET) inhibitors with anticancer efficacy” (Eur J Med Chem, 2022).

A short description of data set [1]: Half life in Sprague-Dawley rat at 10 mg/kg, po by LC-MS/MS analysis. Type of data set: ADME, organism-based. To be noted: in vivo.
The nature of data set [2]: Metabolic stability in human liver microsomes assessed as elimination half life incubated for 1 hr by LC-MS/MS analysis. Type of data set: ADME, Microsome. To be noted: read-out: beta t1/2. For orientation: Liver microsomes are vesicles of endoplasmic reticulum, rich in cytochrome P450 enzymes.
Data set [3] is described as follows: Metabolic stability in monkey liver microsomes assessed as elimination half life incubated for 1 hr by LC-MS/MS analysis. Type of data set: ADME, Macaca mulatta, Microsome. The note with it: rhesus monkey, read-out: beta t1/2.
Data set [4] can be described thus: Volume of distribution in Sprague-Dawley rat at 1 mg/kg, iv by LC-MS/MS analysis. Type of data set: ADME, organism-based. To be noted: in vivo.
The subject of data set [5] is HCT-15. The data set can be described thus: Antiproliferative activity against human HCT-15 cells assessed as cell growth inhibition measured after 72 hrs by CellTiter-Glo assay. Type of data set: functional. (In ATP-based viability assays light output follows the ATP content of the culture.)
Data set [6] has as its system MDA-MB-468. The data set can be described thus: Antiproliferative activity against human MDA-MB-468 cells assessed as cell growth inhibition measured after 72 hrs by CellTiter-Glo assay. Type of data set: functional.
Data set [7] concerns MV4-11. The data set can be described thus: Induction of cell cycle arrest in human MV4-11 cells assessed as accumulation of cells at G2/M phase at 100 nM incubated for 48 hrs by propidium iodide staining based flow cytometric analysis (reference value: 8%). Type of data set: functional. In general terms: A flow cytometer gives signals particle by particle.
Data set [8] is described as follows: Induction of cell apoptosis in human MV4-11 cells assessed as early apoptotic cells at 500 nM incubated for 48 hrs by Annexin V-FITC/Propidium iodide staining based flow cytometry analysis (reference value: 1.42%). Type of data set: functional.
The nature of data set [9]: Induction of cell apoptosis in human MV4-11 cells assessed as […] cells at 500 nM incubated for 48 hrs by Annexin V-FITC/Propidium iodide staining based flow cytometry analysis (reference value: 96.6%). Type of data set: functional.
In data set [10] the test system is MV4-11. Nature of the data set: Induction of cell cycle arrest in human MV4-11 cells assessed as downregulation of c-myc expression incubated for 24 hrs by Western blotting analysis. Type of data set: functional, cell-based. The note with it: dose 62.5-250 nM, DDE = dose-dependent effect.
Data set [11] in a line: Toxicity in BALB/c nude mouse xenografted with human MV4-11 cells assessed as effect on body weight at 20 to 80 mg/kg, po QD administered for 28 consecutive days. Type of data set: organism-based. To be noted: in vivo, 672 h, dose 20-80 mg/kg, time 28 day.

Each structure is given as a SMILES string.

For the compound `CC(=O)c1c(C)[nH]c(-c2nc3cc(N4CCN(C)CC4)ccc3[nH]2)c1-c1ccccc1`, the half-life is 4.04 h in data set [1], 3.32 h in data set [2] and 1.42 h in [3]. In data set [4], the Vd (as a rule, a proportionality between amount in the body and measured concentration, not a real space) was 3.3 L/kg. The values for the 50% growth inhibitory concentration (GI50) in [5] and in [6] were 0.261 µM and 0.361 µM, respectively. Besides, the Activity in data set [7] is 6.33%; in [8], 16.9%; in data set [9], 6.31%; in [10], “Dde”; in data set [11] it was “Non-Toxic”.
